Results: patent US20140349941A1, “AROMATIC-CATIONIC PEPTIDES AND USES OF SAME” (Cornell University, priority 2011, published 2014)
“Also recorded” adds a separate entry of the source.

Experiments:
[1] = Antioxidant ability: neutralizing reactive species, lipid peroxidation; type: biochemical
[2] = Animal models of ischemia-reperfusion injury, neurodegenerative diseases and metabolic syndrome; type: in vivo; details: neurodegenerative diseases, metabolic syndrome
[3] = target: heme environment of cytochrome c (with CL) (Homo sapiens, UniProt P99999); test: Soret CD spectrum of cyt C in the presence of CL; type: binding; details: cyt C 10 μM; CL 30 μg/ml; peptide 10 μM; 20 mM HEPES pH 7.5, 25° C.; FIG. 24
Method: Circular dichroism (CD) was carried out to examine the effects of the peptides on protecting the heme environment of cyt C from the acyl chain of CL. For heme proteins, the Soret CD spectrum is strictly correlated with the heme pocket conformation. In particular, the negative 416-420 nm Cotton effect is considered diagnostic of Fe(III)-Met80 coordination in native cyt C (Santucci and Ascoli, 1997). […] CD spectra were obtained using AVIV CD Spectrometer Model 410.
Changes in the Soret CD spectrum of cyt C (10 μM) were recorded in the absence (dotted line) and presence (dashed line) of 30 μg/ml CL, plus addition of different peptides (10 μM) (solid line) (FIG. 24). CD measurements were carried out using 20 mM HEPES, pH 7.5, at 25° C. and expressed as molar ellipticity (θ) (m Deg).

cytochrome c-CL complex [4] = target: T1, cytochrome c-CL complex (Homo sapiens, UniProt P99999); test: Fluorescence spectroscopy of peptide with cytochrome c in the presence of CL; type: binding; details: peptide 10 μM, CL 50 μg/ml
Method: Fluorescence emission of SS-19 (10 μM) was monitored in real time (Ex/Em=320 nm/420 nm) using Hitachi F-4500 fluorescence spectrophotometer. […] CL may potentiate the interaction between SS-19 and cytochrome c by serving as an anionic platform for the two cationic molecules.
The quenching by cytochrome c was not displaced by sequential additions of bovine serum albumin (500 μg/ml) (FIG. 23C, A+arrows).
SS-36 also contains the polarity-sensitive fluorescent amino acid aladan.

[5] = tested on: isolated rat renal kidney mitochondria; test: Fluorescence quenching of peptide by mitochondria or mitoplasts; type: binding
Method: (§1) Maximal fluorescence emission of SS-19 was monitored at 420 nm following excitation at 320 nm using Hitachi F-4500 fluorescence spectrophotometer.
(§2) The quenching by cytochrome c was not displaced by sequential additions of bovine serum albumin (FIG. 22C, A+arrows) (500 μg/ml).

cytochrome c = test: Fluorescence quenching of peptide by cytochrome c; type: binding
Method: as §1, §2
Fluorescence emission of SS-19 (10 μM) was monitored in real time (Ex/Em=320 nm/420 nm) using Hitachi F-4500 fluorescence spectrophotometer.

[6] = Fluorescence spectroscopy of peptide interaction with cardiolipin; type: binding; details: peptide 1 μM, CL 5-50 μg/ml
From the text: The peptides Dmt-D-Arg-(atn)Dap-Lys-NH2 (SS-19) and Dmt-D-Arg-Phe-Lys-Ald-NH2 (SS-37)cationic peptides carry net positive charge at neutral pH. They are expected to associate with anionic phospholipid cardiolipin based on electrostatic interaction. The interaction of small peptides with lipid membranes can been studied using fluorescence spectroscopy (Surewicz and Epand, 1984). […] Polarity-sensitive fluorescent probes were incorporated into the peptides and fluorescence spectroscopy was used to determine if SS-19, SS-37 and SS-36 interact with CL.
The peptide Dmt-D-Arg-Phe-(atn)Dap-NH2 (SS-19) contains anthraniloyl incorporated into diaminopropionic acid. Anthraniloyl derivatives fluoresce in the 410-420 nm range when excited at 320-330 nm (Hiratsuka T, 1983). The quantum yield of anthraniloyl derivatives is strongly dependent on the local environment, and can increase 5-fold going from water to 80% ethanol, together with a blue shift in the emission maxima (λ max) of <10 nm (Hiratsuka T, 1983). Fluorescence emission spectrum of SS-19 (1 μM) alone, and in the presence of increasing concentrations of CL (5 to 50 μg/ml), was monitored following excitation at 320 nm using Hitachi F-4500 fluorescence spectrophotometer.
The peptide Dmt-D-Arg-Phe-Lys-Ald-NH2 (SS-37) contains an additional amino acid, aladan (Ald), which has been reported to be particularly sensitive to the polarity of its environment and it has been used to probe the electrostatic character of proteins (Cohen et al., 2002). When excited at 350 nm, λmax shifts from 542 nm in water to 409 nm in heptane, accompanied by a significant increase in quantal yield (Cohen et al., 2001). Fluorescence emission spectrum of SS-37 (1 μM) alone, and in the presence of increasing concentrations of CL, was monitored following excitation at 350 nm. Addition of CL (5 to 50 μg/ml) led to a 3-fold increase in quantal yield of SS-37 as well as a clear blue shift in λmax, from 525 nm without CL to 500 nm with 50 μg/ml CL (FIG. 21B).
The peptide Dmt-D-Arg-Ald-Lys-NH2 (SS-36) contains Ald in place Phe^3. Fluorescence emission spectrum of SS-36 (1 μM) alone, and in the presence of increasing concentrations of CL, was monitored following excitation at 350 nm. SS-36 was the most sensitive to the addition of CL, with dramatic increase in quantal yield and blue shift observed with much lower added amounts of CL (1.25 to 5 μg/ml). The λmax shifted from 525 nm without CL to 500 nm with as little as 1.25 μg/ml CL, and quantal yield increased by more than 100-fold with the addition of 5 μg/ml of CL (FIG. 21C).

cytochrome c-CL complex [7] = target: T1, cytochrome c-CL complex; test: Cytochrome c/CL peroxidase activity (amplex red); type: biochemical; details: figure legend FIG. 29A-C; comparison at a fixed concentration of 10 μM (FIG. 29C)
From the text: The six coordination of the heme in cytochrome c prevents direct interaction of H2O2 with the catalytic metal site, and native cytochrome c in solution is a poor peroxidase. Upon interaction with CL, cytochrome c undergoes a structural change with rupture of the Fe-Met80 coordination. […] The mechanism of action of cytochrome c peroxidase is similar to that of other peroxidases, such as horse radish peroxidase (HRP). Thus it is possible to use the amplex red-HRP reaction to investigate cytochrome c peroxidase activity. In the presence of peroxidase, amplex red (AR) reacts with H2O2 to form the red-fluorescent oxidation product, resorufin (Ex/Em=571/585).
Cytochrome c (2 μM) was mixed with CL (25 μg/ml) and 10 μM H2O2 in 20 mM HEPES, pH 7.4. Amplex red (50 μM) was then added and fluorescence emission monitored in real time using Hitachi F4500 fluorescence spectrophotometer. Addition of amplex red elicited rapid increase in fluorescence signal due to resorufin formation, providing direct evidence for peroxidase activity of cytochrome c/CL complex (FIG. 29A).

T1 sequence (P99999 2-105 limits assumed, species assumed, one chain of several): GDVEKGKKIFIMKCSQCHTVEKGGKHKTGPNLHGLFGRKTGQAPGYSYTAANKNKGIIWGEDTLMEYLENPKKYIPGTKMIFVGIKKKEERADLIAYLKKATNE
heme environment of cytochrome c (with CL), sequence (P99999 2-105 limits assumed, species assumed): as the sequence (P99999 2-105 limits assumed, species assumed, one chain of several) above

Substance	lipid peroxidation [1]	neutralizing reactive species [1]	efficacy in animal models [2]	disappearance of the negative Cotton effect caused by CL (heme environment of cytochrome c) [3]	peptide fluorescence on addition of cytochrome c in the presence of CL (cytochrome c-CL complex [4]; 2 μM cytochrome c)	peptide fluorescence on addition of CL (cytochrome c-CL complex [4]; FIG. 23B)	quenching of peptide fluorescence by cytochrome c-depleted mitoplasts ([5]; mitoplasts 0.4 mg, FIG. 22B)	peptide fluorescence on addition of mitochondria ([5]; peptide 10 μM, sequential addition of 0.2 mg mitochondria, FIG. 22A)	displacement of cytochrome c quenching by bovine serum albumin (cytochrome c; BSA 500 μg/ml, FIG. 22C)	dependence of interaction on amount of cytochrome c (cytochrome c; FIG. 22D)	peptide fluorescence on addition of cytochrome c (cytochrome c; peptide 10 μM, 2 μM cytochrome c, no CL)	increase in quantal yield of peptide fluorescence [6] [fold]	shift in λmax on addition of CL ([6]; excitation 320 nm)	peroxidase activity in cytochrome c/CL complex (cytochrome c-CL complex [7])
D-Arg-2′6′-Dmt-Tyr-Lys-Phe-NH2	inhibit lipid peroxidation	can neutralize H2O2, hydroxyl radical, and peroxynitrite	remarkable efficacy											
Dmt-D-Arg-Phe-(atn)Dap-NH2 [SS-19]				Protect the Heme Environment of Cytochrome C from the Acyl Chain of CL	larger extent of quenching of SS-19 fluorescence	increase in SS-19 fluorescence	significantly reduced	quenched	not displaced	linearly dependent on the amount of cytochrome c added	similarly quenched; also recorded: immediate quenching of the fluorescence signal	2	no significant shift in λmax	preventing peroxidase activity in cytochrome c/CL complex
